Measured values reported in US20080220056A1, “Treatment for liver disease” (UNIVERSITY OF SOUTHAMPTON, priority 2002, published 2008).

Experiments:
[1] = test system: rat hepatic stellate cells; experiment: Hepatic stellate cell apoptosis by acridine orange staining and counting (cycloheximide or serum deprivation), rat cells; type: cell-based; details: rat HSC; protein at 142.5 ng/ml
Description: (§1) Human hepatic stellate cells were extracted from the margins of normal human liver resected for colonic metastatic disease as previously described (Iredale et al., Clin. Sci., (1995) 89: 75-81). Rat hepatic stellate cells were extracted from normal rat liver by Pronase and collagenase digestion and purified by centrifugal elutriation as described (Arthur et al., J. Clin. Invest., (1989) 84:1076-1085). Extracted hepatic stellate cells were cultured on plastic until they were activated to a myofibroblastic phenotype after 7 to 10 days. Human and rat hepatic stellate cells were used for experiments after activation in primary culture or before fourth passage. Cells were cultured in Dulbecco's modified Eagle's medium in the presence of 16% fetal calf serum and antibiotics.
(§2) Apoptosis of hepatic stellate cells was induced by absolute serum deprivation, cycloheximide treatment (Issa et al., Gut (2001) 48: S48-S57), or exposure to nerve growth factor as previously described (Trim et al., Am. J. Pathol., (2000) 156, 1235-1243). Hepatic stellate cells were cultured in 24-well tissue culture plates. Rat and human hepatic stellate cells were exposed to proapoptotic stimuli with and without recombinant TIMP-1 (Biogenesis, Poole, UK) and other manipulations as detailed below. Following a 4 hour incubation at 37° C., nuclear morphology was assessed by adding acridine orange to each well (final concentration 1 μg/ml) and observing the cells under blue fluorescence. The total number of apoptotic bodies was counted, and any apoptotic bodies floating in the supernatant were included by racking up the objective lens. The total number of cells per field was counted, and an apoptotic index was calculated. Each condition was performed in duplicate, and three high power fields were counted for each well. […] To examine for autocrine effects, hepatic stellate cells were incubated for 18 hours with azide-free polyclonal neutralizing antibodies to TIMP-1 and a nonimmune IgG control (Santa Cruz Biotechnology, Inc., Santa Cruz, Calif.), and responses were assessed by acridine orange staining and counting.
Apoptosis was assessed by acridine orange staining. […] A normal cell lies adjacent to the apoptotic body. This technique was used to determine the percentage of apoptotic hepatic stellate cells following exposure to cyclohexamide in the presence or absence of TIMP-1. Hepatic stellate cells were exposed to 50 μM cyclohexamide and 0, 1, 10, 100 or 200 ng/ml of TIMP-1. Cells treated with serum alone were used as controls. […] Bovine serum albumin, used as a carrier for the TIMP-1 had no antiapoptotic effect.

[2] = test system: caspase-3 activity in hepatic stellate cells; experiment: Caspase-3 activity in cycloheximide-treated hepatic stellate cells; type: cell-based; details: wild type TIMP-1 or T2G mutant N-TIMP-1
Description: Apoptosis was quantified by a colorimetric assay for caspase-3 activity (Promega) according to the manufacturer's instructions.
Caspase-3 is a central caspase in the proapoptotic cascade (Hengartner, Nature (2000) 407, 770-776) and can be used as an alternative assay to assess apoptosis. Hepatic stellate cells were cultured in 50 μM cycloheximide with TIMP-1 at a concentration of 0, 1, 10, or 100 ng/ml. Controls where cells were incubated with either the caspase 3 inhibitor benzyloxycarbonyl-Val-Ala-Asp-fluoromethylketone or serum alone were also performed. Data are expressed as mean ±S.E. and are presented as percentage of control given the arbitrary value of 100%. * indicates p<0.001; n=3. […] Although the mean caspase-3 activity of the cells treated with 10 ng/ml TIMP-1 was slightly lower than that treated with 100 ng/ml of TIMP-1, this was not statistically significant (p=0.67 by Student's t test).

[3] = test system: human hepatic stellate cells; experiment: Hepatic stellate cell apoptosis by acridine orange staining and counting (cycloheximide or serum deprivation), human cells; type: cell-based; details: human HSC; protein at 142.5 ng/ml
Description: as §1
as §2, with “Rat and human hepatic stellate cells were exposed to proapoptotic stimuli with and without recombinant TIMP-1 (Biogenesis, Poole, UK) and other manipulations as detailed below.” left out
Apoptosis was assessed by acridine orange staining. […]

[4] = test system: caspase 3 activity in 10 day culture activated hepatic stellate cells; experiment: Caspase 3 activity (pNA liberation) of hepatic stellate cells treated with 5-HT2 antagonists; type: cell-based, rat; details: for effect of serotonin on the specific caspase 3 activity: LY 53,857 100 μM 24 hours, Methiothepin maleate 10 μM 3 hours, with serotonin (100 M [sic])
Description: (§3) The mRNA for the 5-HT2B receptor was only found in 10 day culture activated hepatic stellate cells, whereas the mRNA for the 5-HT2C receptor was absent from all cells investigated. […] 10 day culture activated hepatic stellate cells were treated with a range of 5-HT2 antagonists (including Spiperone HCl, Methiothepin Maleate and LY 53,857) at various concentrations and time periods and nuclear morphology was assessed using Acridine Orange (1 μg/ml) staining as described in Examples 1 and 2. […] Caspase 3 activity (as defined by pNA liberation) was subsequently determined at the predetermined optimal times and doses as described in Examples 1 and 2. 10 day culture activated hepatic stellate cells were also treated with the antagonist together with the 5-HT2 agonist serotonin (5-hydroxytryptamine 100 µM) to see if any modification of the caspase 3 specific activity could be achieved by direct receptor binding site competition.

[5] = test system: 10 day culture activated hepatic stellate cells; experiment: Nuclear morphology (acridine orange) of hepatic stellate cells treated with 5-HT2 antagonists; type: cell-based, rat
Description: as §3

[6] = test system: rat hepatic stellate cells; experiment: Trypan blue exclusion of treated rat hepatic stellate cells; type: cell-based; details: rat HSC; 1.5 μmol/L gliotoxin or 200 μmol/L chlorpromazine
rat hepatocytes [7] = experiment: DNA laddering in rat hepatocytes; type: cell-based; details: four hours; 50 μmol/L gliotoxin, 200 μmol/L chlorpromazine, 200 μmol/L methapyrilene, 10 ng/mL TNF-α with cycloheximide
Description: Hepatic stellate cells cultured in 35-mm diameter dishes (Greiner) were harvested, pelleted by centrifugation and DNA fragmentation determined as outlined elsewhere (Elsharkawy et al., Hepatology (1999) 30:761-769). Propidium Iodide Flow-Activated Cell Sorting Analysis Detached cells were pelleted by centrifugation, washed in PBS, and resuspended in HYPO buffer (0.1% wt/vol) Na3Citrate and 0.1% (wt/vol) Triton™ X-100 containing […] propidium iodide and incubated for 1 hour. The cells were then analyzed by fluorescence-activated cell sorter (FACS) with a Becton Dickinson (San Jose, Calif.) FACScan instrument using a 488 nm excitation wavelength with a band pass filter set at 530 nm. Attached cells were scraped in HYPO buffer after washing cells with PBS.
DNA laddering was also used to compare the effect of gliotoxin, chlorpromazine, methapyrilene and also the combination of TNF-α with cycloheximide on hepatocytes and hepatic stellate cells.

rat hepatocytes [8] = experiment: Rat hepatocyte viability by attachment and trypan blue exclusion; type: cell-based; details: 200 μmol/L, four hours
Description: Rat hepatocytes were isolated by collagenase perfusion essentially as previously described. (Harvey et al., Biochemical J., (1998) 331:273-281). Hepatocytes were cultured as outlined for hepatic stellate cells except that they were initially seeded onto collagen coated plates in William's medium E supplemented with 10% fetal calf serum and 1 μg/mL insulin for the first 2 hours.
Cells were treated with gliotoxin dissolved in DMSO vehicle (added to medium from a 2000-fold molar concentrated stock). Control cells received DMSO vehicle only (i.e., 0.05% vol/vol). All other additions to culture medium were made from concentrated stocks dissolved in DMSO or by direct addition to culture medium. Protein contents of wells were determined using the Lowry assay (Lowry et al., J. Biol. Chem., (1951)193: 265-275).
The effect of various compounds on cell viability and attachment was determined. Viability of rat hepatocytes as judged by attachment and 0.1% (wt/vol) trypan blue exclusion after four hours treatment with: […]

[9] = test system: caspase 3 activity in rat hepatic stellate cells; experiment: Caspase 3 (Ac-DEVD-pNA cleavage) activity in rat hepatic stellate cells; type: cell-based; details: 200 μmol/L chlorpromazine, three hours
Description: Hepatic stellate cells cultured in 100 mm diameter dishes (Greiner, Frickenhausen, Germany) were harvested and pelleted by centrifugation. The medium supernatant was discarded and the cell pellet was washed in 1 mL of ice-cooled phosphate buffered saline (PBS). Caspase 3 (DEVDase) activity was determined using a colorimetric CaspACE kit (Promega, Southampton, England) using the manufacturer's instructions.
Caspase 3 (Ac-DEVD-pNA cleavage) activity was then examined in control and gliotoxin-treated hepatic stellate cells. Culture activated rat hepatic stellate cells (14 days) in 100 mm diameter plates were treated with 0.05% (vol/vol) DMSO, 1.5 μmol/L gliotoxin, 20 μmol/L Z-VAD-FMK or 200 μmol/L chlorpromazine for three hours. The cells were then harvested for examination of caspase 3 activity as outlined in the materials and methods sections.

## wild type N-TIMP-1: wild type (active) TIMP-1 protein compared with the T2G mutant
[1]
  apoptosis induced by cycloheximide (acridine orange): significantly inhibited apoptosis
[2]
  caspase-3 activity in cycloheximide-treated hepatic stellate cells: significantly reduced caspase-3 activity
[3]
  apoptosis induced by cycloheximide (acridine orange): significantly inhibited apoptosis

## O=C(CCCN1CCC2(CC1)C(=O)NCN2c1ccccc1)c1ccc(F)cc1 [Spiperone]
[4]; 100 μM for 24 hours (Spiperone)
  specific caspase 3 activity: 6.5 μmol pNA liberated/hour/μg protein
[4]; Spiperone 100 μM for 24 hours with serotonin (100 M [sic])
  specific caspase 3 activity in the presence of serotonin: 4 μmol pNA liberated/hr/μg protein
[5]; 24 hours at 100 μM (Spiperone)
  maximal nuclear condensation: 80%

## CC(O)C(C)OC(=O)[C@@H]1C[C@@H]2c3cccc4c3c(cn4C(C)C)C[C@H]2N(C)C1 (stereo partly shown) [LY 53,857]
[4]; 100 μM for 24 hours (LY 53,857)
  specific caspase 3 activity: 1 μmol pNA liberated/hour/μg protein
[4]
  effect of serotonin on the specific caspase 3 activity: not significantly reduced by the presence of serotonin
[5]; 24 hours at 100 μM (LY 53,857)
  maximal nuclear condensation: ~100%

## CN(C)CCCN1c2ccccc2Sc2ccc(Cl)cc21 [chlorpromazine]
[6]
  0.1% (wt/vol) trypan blue exclusion (membrane integrity): unable to exclude 0.1% (wt/vol) trypan blue
Rat hepatocytes [7]
  cleavage of hepatocyte DNA to a nucleosomal ladder: only hepatocytes treated with TNF-α and cycloheximide cleaved their DNA to a nucleosomal ladder
Rat hepatocytes [8]
  hepatocytes that do not exclude trypan blue, compared with 50 μmol/L gliotoxin: a level similar
[9]
  increase in caspase 3 activity: not seen

## CSc1ccc2c(c1)C(N1CCN(C)CC1)Cc1ccccc1S2.O=C(O)/C=C\C(=O)O (stereo not shown) [Methiothepin maleate]
[4]; 10 μM for 3 hours (Methiothepin maleate)
  specific caspase 3 activity: 0.9 μmol pNA liberated/hour/μg protein
[4]
  effect of serotonin on the specific caspase 3 activity: not significantly reduced by the presence of serotonin
[5]; 3 hours at 10-100 μM (Methiothepin maleate)
  maximal nuclear condensation: 100%
